According to patent US9352010B2, “Treatment of HIV-1 infection and AIDS” (The J. David Gladstone Institutes, priority 2011, dated 2016):

Columns and labels:
SupT1 cells = assay: Virion-based fusion assay (BlaM-Vpr); format: cell-based; conditions: virions produced in the presence of amprenavir
Experimental: The virion-based fusion assay is performed in three successive steps: (1) incubation of target cells with virions, (2) loading of target cells with the CCF2/AM dye, and (3) development and detection of the BlaM reaction. SupT1 cells (5×10^5) were incubated with BlaM-Vpr containing virions (400 ng of p24^gag at 37° C. for 2 hours, washed in CO2-independent medium (GibCo BRL), and loaded with CCF2/AM dye as described by the manufacturer (Invitrogen). Briefly, 2 μl of CCF2/AM (1 mM) was mixed with 8 μl of 0.1% acetic acid containing 100 mg/ml Pluronic-F127R and 1 ml of DEEM to constitute the loading solution. Cells were incubated in 100 μl of loading solution for 1 hour at room temperature. After two washes with DEEM, the BlaM reaction was executed for 16 hours at room temperature in 200 μl of DMEM supplemented with 10% FBS and 2.5 mM probenecid, a nonspecific inhibitor of anion transport (Sigma Pharmaceuticals). Finally, the cells were washed once in DMEM and fixed in a 2% solution of paraformaldehyde. The change in emission fluorescence of CCF2 after cleavage by the BlaM-Vpr chimera was monitored by flow cytometry with LSR2 (Becton Dickinson, San Jose, Calif.). Data were collected with DiVa software and analyzed with FlowJo software (Treestar, San Carlos, Calif.).

NL4-3 and TR712 virions = assay: Viral maturation, immunoblot of viral lysates produced in 293T-cells; format: cell-based; conditions: NL4-3 and TR712 virions produced with amprenavir
Experimental: NL4-3 and TR712 viruses were generated in 293T-cells with or without amprenavir, lysed and subjected to SDS-PAGE immunoblotting analysis for gp120, p55 Gag, p24 CA, Blam-Vpr, and free Blam. […] SupT1 cells were mock infected or infected with mature or immature NL4-3 or TR712 virions containing Blam-Vpr. After loading of cells with CCF2 dye, fusion was analyzed by flow cytometry. Percentages are the fraction of cells displaying increased cleaved CCF2 fluorescence, indicating virion fusion.
The effect of protease inhibitors on viral maturation was assessed first. NL4-3 viruses carrying a β-lactamase-Vpr (BlaM-Vpr) reporter protein were produced in 293T-cells in the presence or absence of the HIV protease inhibitor amprenavir.

CFSE-labeled CD4 T-cells = format: cell-based, human; conditions: NL4-3-infected effector cells
Experimental: (A) Experimental strategy to assess indirect cell killing in HIV-1-infected human lymphoid cultures. Fresh human tonsil tissue from a single donor is processed into HLAC, and then separated into two fractions. One fraction is challenged with HIV-1 and cultured for 6 days, allowing viral spread. On day 5, the uninfected fraction is treated with AZT (5 μM) and labeled with CFSE (1 μM). On day 6, the infected and CFSE-labeled (i.e., uninfected) cultures are mixed and co-cultured in the presence of AZT. […] After 6 days of co-culturing, the number of viable CFSE-positive cells is determined by flow cytometry. (B) Flow cytometry analysis of the mixed HLACs. Indirect killing is determined by gating on live CFSE-positive cells in the mixed cultures. Effector cells are either infected or uninfected cells. […] CFSE-labeled cells mixed with uninfected or infected cells were cultured in the presence of 5 μM AZT alone or together with 250 nM AMD3100. Data represent live CFSE-positive cells 6 days after co-culture with infected or uninfected effector cells. […] The absolute numbers of viable CFSE-positive CD4 and CD8 T-cells and B cells were determined. Percentages are normalized to the number of viable CFSE-positive cells co-cultured with uninfected cells in the presence of AZT, as depicted by (*). Error bars represent standard deviations of three samples from the same donor. […] See also FIG. 3.
Human tonsil or splenic tissues from routine tonsillectomies were obtained from the National Disease Research Interchange and the Cooperative Human Tissue Network and processed as previously described (Jekle et al., 2003, J Virol 77:5846-5854). In brief, tonsils or spleen were minced, passed through a 40-μm cell strainer, and cultured in 96-well U-bottomed polystyrene plates (2×10^6 cells/well) in medium (200 μl/well) consisting of RPMI 1640 supplemented with 15% heat-inactivated fetal bovine serum, 100 μg/ml gentamicin, 200 μg/ml ampicillin, 1 mM sodium pyruvate, 1% nonessential amino acids (Mediatech), 2 mM L-glutamine, and 1% fungizone (Invitrogen). All HIV-1 infections were carried out with 20-50 ng of HIV-1 p24^gag. Cells were incubated with the virus for 12-16 h, washed extensively, and supplemented with fresh medium. After day 5, infections were monitored by measuring p24gag levels in the culture medium using a FLAQ assay (Hayden et al., 2003, AIDS 17:629-631). Infected and uninfected cultures were manipulated as described for individual experiments. In “indirect killing” assays, unless otherwise stated, drugs were used at the following concentrations: 5 μM AZT; 250 nM AMD3100; 10 μg/ml T20; 100 nM Efavirenz; 1 μM Nevirapine; 30 μM Raltegravir; 60 μM 118-D-24; 5 μM Amprenavir; 5 μM Saquinavir; 5 μM Indinavir. CFSE-labeled cells were activated with PHA (5 μg/ml) and IL-2 (20 ng/ml) 2 days before mixing with effector cells.
Uninfected cells (5×10^6/ml) were labeled with 1 μM CFSE (Molecular Probes C1157), treated with 5 μM AZT for 24 h, and co-cultured with effector cells. CFSE readily diffuses into cells, where intracellular esterases cleave the acetate groups, converting it to a fluorescent, membrane-impermeable dye.

[1] = system: SupT1 CD4 T leukemic cells; assay: Syncytia formation in NL4-3-infected SupT1 cells; format: cell-based; conditions: 5 μM protease inhibitor, 2.5 days
Experimental: (A) The spinoculation procedure. (B) Flow cytometry of viable CD4 versus CD8-T-cells in HLAC three days after spinoculation in the presence of the indicated drugs. Data represent live-gated cells, based on the forward-scatter versus side-scatter profile of the complete culture. Of note, apoptotic cells were included in the analysis of caspases activity and cytokine expression (FIG. 10E, F). Drugs concentrations: AZT 5 μM; Efavirenz 100 nM; AMD3100 250 nM; T20 10 μg/ml. The data are representative results of six independent experiments with six different donors. […] (C) Highly permissive SupT1 CD4 T leukemic cells were infected with NL4-3 and cultivated for 3 days to allow substantial infection but not syncytia formation. […] After 2.5 days of additional culture, the extent of syncytia formation in each sample was evaluated by light microscopy. […] Results are representative of three independent experiments.

HLAC CD4 T-cells = assay: HLAC cells overlaid on virus-producing 293T-cells, CD4 T-cell depletion; format: cell-based, human; conditions: TR712-transfected 293T-cells in the presence of amprenavir
Experimental: HLACs were infected with viruses derived from the indicated HIV proviral clones in the presence of the indicated concentrations of AZT or in the absence of drugs. Six days after infection the amount of p24^gag in the medium was determined by FLAQ assay. The amount of p24^gag in the medium after infection wash (day 0) was defined as 0%. […] Viral incorporation of endogenous A3G was measured by immunoblot analysis of purified NL4-3 and Δvif NL4-3 virions harvested from 1 ml of supernatant from infected HLACs. Doses reflect 1:10 dilutions. […] Resting or activated CFSE-labeled cells were co-cultured with cells infected with WT or Δvif NL4-3 in the presence or absence of the following drugs, AZT (5 μM), AMD3100 (250 nM), the NNRTIs Efavirenz (100 nM), and Nevirapine (1 μM), or the integration inhibitors Raltegravir (30 μM) and 118-D-24 (60 μM). Data are representative of four independent experiments performed with cells from four different donors. (E) A method to assess indirect killing in HLAC with non-infectious HIV-1 clones. Fresh human tonsil is processed into HLAC and cells are cultured in suspension. At the same time 293T-cells are transfected with 1 μg HIV-1 DNA in a 24-well plate. After 12 hours, 293T-cells are washed and overlayed with 3×10^6 HLAC cells in RPMI in the presence of the indicated drugs. Virus-producing 293T-cells directly interact with target overlaying HLAC cells. After 24 hours, the HLAC suspensions are collected from wells and analyzed by flow cytometry. […] HLAC were cultured with the indicated drugs 3 hours before co-culture with 293T-cells. Percentages are normalized to the number of viable CD4 T-cells in HLAC overlaying non-transfected 293T-cells in the presence of AZT, as depicted by (*). Error bars represent standard error of the mean of three experiments performed using cells from three different HLAC donors.

## CC(C)CN(C[C@@H](O)[C@H](Cc1ccccc1)NC(=O)O[C@H]1CCOC1)S(=O)(=O)c1ccc(N)cc1 [Amprenavir]
SupT1 cells
  decline in fusogenic properties of immature NL4-3 viruses: 90%
  fusion capacity retained by immature TR712: 40%
NL4-3 and TR712 virions
  Gag processing in virions: an uncleaved form of p55 Gag polypeptide rather than the mature p24 CA protein accumulated
CFSE-labeled CD4 T-cells
  indirect killing (loss) of resting CFSE-labeled CD4 T-cells: inhibit indirect killing
[1]
  syncytia formation / cell-cell fusion: do not block syncytia formation
HLAC CD4 T-cells
  CD4 T-cell killing by TR712 viruses: prevented CD4 T-cell killing by TR712 viruses
